In the data set the test system is CCRIS mutagenicity, Ames/micronucleus/aberration tests. Briefly: CCRIS mutagenicity studies.
Where [1] appears, read: Test System: AMES SALMONELLA TYPHIMURIUM, Strain/Indicator: TA100, Metabolic Activation: NONE, Method: STANDARD PLATE.
Where [2] appears, read: Test System: AMES SALMONELLA TYPHIMURIUM, Strain/Indicator: TA98, Metabolic Activation: NONE, Method: STANDARD PLATE.
Where [3] appears, read: Test System: AMES SALMONELLA TYPHIMURIUM, Strain/Indicator: TA98, Metabolic Activation: RAT, LIVER, S-9, AROCLOR 1254, Method: STANDARD PLATE.
The mark [4] stands for this setting: Test System: AMES SALMONELLA TYPHIMURIUM, Strain/Indicator: TA1535, Metabolic Activation: NONE, Method: STANDARD PLATE.
[5] abbreviates: Test System: AMES SALMONELLA TYPHIMURIUM, Strain/Indicator: TA1537, Metabolic Activation: NONE, Method: STANDARD PLATE.
Setting [6] is: Test System: AMES SALMONELLA TYPHIMURIUM, Strain/Indicator: TA1538, Metabolic Activation: NONE, Method: STANDARD PLATE.
Where [7] appears, read: Test System: AMES SALMONELLA TYPHIMURIUM, Strain/Indicator: TA98, Metabolic Activation: NONE, Method: PREINCUBATION
Where [8] appears, read: Test System: AMES SALMONELLA TYPHIMURIUM, Strain/Indicator: TA100, Metabolic Activation: NONE, Method: PREINCUBATION
Where [9] appears, read: Test System: AMES SALMONELLA TYPHIMURIUM, Strain/Indicator: TA1535, Metabolic Activation: NONE, Method: PREINCUBATION
Where [10] appears, read: Test System: AMES SALMONELLA TYPHIMURIUM, Strain/Indicator: TA1537, Metabolic Activation: NONE, Method: PREINCUBATION

Structures are written as SMILES. Activity calls are given as the source filed them. How the calls were made is not given here.

Regarding `C#CCOS(=O)(=O)c1ccc(C)cc1`, the mutagenic call by setting is: under setting [1], “inactive; negative”; (Test System: AMES SALMONELLA TYPHIMURIUM, Strain/Indicator: TA100, Metabolic Activation: RAT, LIVER, S-9, Method: STANDARD PLATE) “active; positive”.
`O=S1(=O)OC(c2cc(Br)c(O)c(Br)c2)(c2cc(Br)c(O)c(Br)c2)c2ccccc21`: the mutagenic call reads like this: under setting [2], “inactive; negative”; under setting [3], “inactive; negative”; under setting [1], “inactive; negative”; (Test System: AMES SALMONELLA TYPHIMURIUM, Strain/Indicator: TA100, Metabolic Activation: RAT, LIVER, S-9, AROCLOR 1254, Method: STANDARD PLATE) “inactive; negative”; under setting [4], “inactive; negative”; (Test System: AMES SALMONELLA TYPHIMURIUM, Strain/Indicator: TA1535, Metabolic Activation: RAT, LIVER, S-9, AROCLOR 1254, Method: STANDARD PLATE) “inactive; negative”. Also, the mutagenic call by setting is: under setting [5], “inactive; negative”; (Test System: AMES SALMONELLA TYPHIMURIUM, Strain/Indicator: TA1537, Metabolic Activation: RAT, LIVER, S-9, AROCLOR 1254, Method: STANDARD PLATE) “inactive; negative”; under setting [6], “inactive; negative”; (Test System: AMES SALMONELLA TYPHIMURIUM, Strain/Indicator: TA1538, Metabolic Activation: RAT, LIVER, S-9, AROCLOR 1254, Method: STANDARD PLATE) “inactive; negative”; (Test System: MOUSE LYMPHOMA, Strain/Indicator: L5178Y (TK+/TK-), Metabolic Activation: NONE, Method: SUSPENSION/PLATE) “inactive; negative”; (Test System: MOUSE LYMPHOMA, Strain/Indicator: L5178Y (TK+/TK-), Metabolic Activation: RAT, LIVER, S-9, AROCLOR 1254, Method: SUSPENSION/PLATE) “inactive; negative”.
Turning to `Cc1cnc2cc(C)c3c(nc(N)n3C)c2n1`, under setting [3], the mutagenic call was “active; positive”.
Take `C=C1[C@H](O)[C@@]23CC[C@H]4[C@@](C)(CCC[C@@]4(C)C(=O)O)[C@@H]2CC[C@]1(O)C3`: the mutagenic call (Test System: AMES SALMONELLA TYPHIMURIUM, Strain/Indicator: TM677, Metabolic Activation: RAT, LIVER, S-9, AROCLOR 1254, Method: PREINCUBATION) is “inactive; negative”.
For the molecule `O=[N+]([O-])c1ccc2sc3ccccc3c2c1`, the mutagenic call reads like this: (Test System: AMES SALMONELLA TYPHIMURIUM, Strain/Indicator: TA98 (1,8-DNP6), Metabolic Activation: NONE, Method: PREINCUBATION) “active; positive”; (Test System: AMES SALMONELLA TYPHIMURIUM, Strain/Indicator: TA98(NR), Metabolic Activation: NONE, Method: PREINCUBATION) “active; positive”; (Test System: AMES SALMONELLA TYPHIMURIUM, Strain/Indicator: TA98(NR), Metabolic Activation: RAT LIVER S-9, 3-METHYLCHOLANTHRENE (10%), Method: PREINCUBATION) “active; positive”; under setting [7], “active; positive”.
Take `N#CN=C(N)N`: the mutagenic call (Test System: AMES SALMONELLA TYPHIMURIUM, Strain/Indicator: TA98, Metabolic Activation: MAIZE SEEDLING, S-14, Method: PREINCUBATION) was “active; positive”; the mutagenic call (Test System: AMES SALMONELLA TYPHIMURIUM, Strain/Indicator: TA98, Metabolic Activation: MOUSE, LIVER, S-9, Method: PREINCUBATION) is “inactive; negative”; the mutagenic call under setting [7] was “inactive; negative”; the mutagenic call (Test System: AMES SALMONELLA TYPHIMURIUM, Strain/Indicator: TA98, Metabolic Activation: RAT LIVER S-9, PHENOBARBITAL AND BETA-NAPHTHOFLAVONE, Method: PREINCUBATION) was “inactive; negative”; the mutagenic call (Test System: AMES SALMONELLA TYPHIMURIUM, Strain/Indicator: TA100, Metabolic Activation: MAIZE SEEDLING, S-14, Method: PREINCUBATION) is “inactive; negative”; the mutagenic call (Test System: AMES SALMONELLA TYPHIMURIUM, Strain/Indicator: TA100, Metabolic Activation: MOUSE, LIVER, S-9, Method: PREINCUBATION) is “inactive; negative”. For the same molecule, the mutagenic call is, setting by setting: under setting [8], “inactive; negative”; (Test System: AMES SALMONELLA TYPHIMURIUM, Strain/Indicator: TA100, Metabolic Activation: RAT LIVER S-9, PHENOBARBITAL AND BETA-NAPHTHOFLAVONE, Method: PREINCUBATION) “inactive; negative”; (Test System: AMES SALMONELLA TYPHIMURIUM, Strain/Indicator: TA102, Metabolic Activation: NONE, Method: PREINCUBATION) “inactive; negative”; (Test System: AMES SALMONELLA TYPHIMURIUM, Strain/Indicator: TA102, Metabolic Activation: RAT LIVER S-9, PHENOBARBITAL AND BETA-NAPHTHOFLAVONE, Method: PREINCUBATION) “inactive; negative”; (Test System: AMES SALMONELLA TYPHIMURIUM, Strain/Indicator: TA104, Metabolic Activation: NONE, Method: PREINCUBATION) “inactive; negative”; (Test System: AMES SALMONELLA TYPHIMURIUM, Strain/Indicator: TA104, Metabolic Activation: RAT LIVER S-9, PHENOBARBITAL AND BETA-NAPHTHOFLAVONE, Method: PREINCUBATION) “inactive; negative”. Moreover, the mutagenic call is, setting by setting: under setting [9], “inactive; negative”; (Test System: AMES SALMONELLA TYPHIMURIUM, Strain/Indicator: TA1535, Metabolic Activation: RAT LIVER S-9, PHENOBARBITAL AND BETA-NAPHTHOFLAVONE, Method: PREINCUBATION) “inactive; negative”; under setting [10], “inactive; negative”; (Test System: AMES SALMONELLA TYPHIMURIUM, Strain/Indicator: TA1537, Metabolic Activation: RAT LIVER S-9, PHENOBARBITAL AND BETA-NAPHTHOFLAVONE, Method: PREINCUBATION) “inactive; negative”; (Test System: AMES SALMONELLA TYPHIMURIUM, Strain/Indicator: TA1538, Metabolic Activation: NONE, Method: PREINCUBATION) “inactive; negative”; (Test System: E.COLI, Strain/Indicator: WP2UVRA/PKM101, Metabolic Activation: NONE, Method: PREINCUBATION) “inactive; negative”. Moreover, the mutagenic call (Test System: E.COLI, Strain/Indicator: WP2UVRA/PKM101, Metabolic Activation: RAT LIVER S-9, PHENOBARBITAL AND BETA-NAPHTHOFLAVONE, Method: PREINCUBATION) was “inactive; negative”; the mutagenic call (Test System: E.COLI, Strain/Indicator: WP2UVRA, Metabolic Activation: NONE, Method: PREINCUBATION) is “inactive; negative”; the mutagenic call (Test System: E.COLI, Strain/Indicator: WP2UVRA, Metabolic Activation: RAT LIVER S-9, PHENOBARBITAL AND BETA-NAPHTHOFLAVONE, Method: PREINCUBATION) is “inactive; negative”.
On to `C1CCC2(CC1)CO2`, for which, under setting [1], the mutagenic call was “inactive; negative”.
Regarding `O=[N+]([O-])c1ccc(-c2nc3n(c2[N+](=O)[O-])CCS3)cc1`, the mutagenic call by setting is: under setting [2], “active; positive”; under setting [1], “active; positive”; under setting [4], “inactive; negative”; under setting [5], “inactive; negative”; under setting [6], “active; positive”.
As for `Clc1cccc(Cl)c1NC1=NCCN1`, the mutagenic call by setting is: under setting [7], “inactive; negative”; (Test System: AMES SALMONELLA TYPHIMURIUM, Strain/Indicator: TA98, Metabolic Activation: S-9, Method: PREINCUBATION) “inactive; negative”; under setting [8], “inactive; negative”; (Test System: AMES SALMONELLA TYPHIMURIUM, Strain/Indicator: TA100, Metabolic Activation: S-9, Method: PREINCUBATION) “inactive; negative”; under setting [9], “inactive; negative”; (Test System: AMES SALMONELLA TYPHIMURIUM, Strain/Indicator: TA1535, Metabolic Activation: S-9, Method: PREINCUBATION) “inactive; negative”. The mutagenic call reads like this: under setting [10], “inactive; negative”; (Test System: AMES SALMONELLA TYPHIMURIUM, Strain/Indicator: TA1537, Metabolic Activation: S-9, Method: PREINCUBATION) “inactive; negative”; (Test System: E. COLI, Strain/Indicator: WP2 UVRA, Metabolic Activation: NONE, Method: PREINCUBATION) “inactive; negative”; (Test System: E. COLI, Strain/Indicator: WP2 UVRA, Metabolic Activation: S-9, Method: PREINCUBATION) “inactive; negative”; (Test System: UDS RAT HEPATOCYTES, Strain/Indicator: THY INCORP, Metabolic Activation: NONE, Method: IN VIVO-IN VITRO) “inactive; negative”.

(Values after PubChem BioAssay AID1259407 (Chemical Carcinogenesis Research Information System (CCRIS), 2018).)
